Assay type in all cases: cell-based
Experiment [1] deals with Aβ42. Briefly: Screening for γ-secretase-modulating activity, Method 2: Aβ42 Alphalisa on SKNBE2 cell supernatant. Conditions: Method 2, Table 3c, SKNBE2 cells carrying APP 695 wild type, overnight incubation. The procedure: (§1) Screening was carried out using SKNBE2 cells carrying the APP 695—wild type, grown in Dulbecco's Modified Eagle's Medium/Nutrient mixture F-12 (DMEM/NUT-mix F-12) (HAM) provided by Invitrogen (cat no. 10371-029) containing 5% Serum/Fe supplemented with 1% non-essential amino acids, 1-glutamine 2 mM, Hepes 15 mM, penicillin 50 U/ml (units/ml) en streptomycin 50 μg/ml. Cells were grown to near confluency.
(§2) The screening was performed using a modification of the assay as described in Citron et al (1997) Nature Medicine 3: 67. Briefly, cells were plated in a 384-well plate at 10^4 cells/well in Ultraculture (Lonza, BE12-725F) supplemented with 1% glutamine (Invitrogen, 25030-024), 1% non-essential amino acid (NEAA), penicillin 50 U/ml en streptomycin 50 μg/ml in the presence of test compound at different test concentrations. The cell/compound mixture was incubated overnight at 37° C., 5% CO2. The next day the media were assayed by two sandwich immuno-assays, for Aβ42 and Aβtotal.
(§3) Aβtotal and Aβ42 concentrations were quantified in the cell supernatant using the Aphalisa technology (Perkin Elmer). Alphalisa is a sandwich assay using biotinylated antibody attached to streptavidin coated donorbeads and antibody conjugated to acceptor beads. In the presence of antigen, the beads come into close proximity. The excitation of the donor beads provokes the release of singlet oxygen molecules that trigger a cascade of energy transfer in the acceptor beads, resulting in light emission. To quantify the amount of Aβ42 in the cell supernatant, monoclonal antibody specific to the C-terminus of Aβ42 (JRF/cAβ42/26) was coupled to the receptor beads and biotinylated antibody specific to the N-terminus of Aβ (JRF/AβN/25) was used to react with the donor beads. To quantify the amount of Aβtotal in the cell supernatant, monoclonal antibody specific to the N-terminus of Aβ (JRF/AβN/25) was coupled to the receptor beads and biotinylated antibody specific to the mid region of Aβ (biotinylated 4G8) was used to react with the donor beads.
(§4) To obtain the values reported in Table 3c, the data were calculated as percentage of the maximum amount of amyloid Beta 42 measured in the absence of the test compound. The sigmoidal dose response curves were analyzed using non-linear regression analysis with percentage of the control plotted against the log concentration of the compound. A 4-parameter equation was used to determine the IC50.
On the technique in general: Bead proximity is the source of the signal in Alpha formats.

Experiment [2] relates to Aβtotal. Briefly: Screening for γ-secretase-modulating activity, Method 2: Aβtotal Alphalisa on SKNBE2 cell supernatant. Conditions: Method 2, Table 3c, SKNBE2 cells carrying APP 695 wild type, overnight incubation. The procedure:
as §1, §2, §3, §4

Experiment [3] relates to Aβtotal. Briefly: Screening for γ-secretase-modulating activity, Method 1: Aβtotal sandwich ELISA on SKNBE2 cell media. Conditions: SKNBE2 cells carrying APP 695 wild type. Summed up: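 SKNBE2 cells expressing wild-type APP 695 were treated with compound for 18 hours. Aβtotal in the medium was measured by sandwich ELISA (6E10 capture, biotinylated 4G8 detection, fluorogenic peroxidase read-out). IC50 came from a 4-parameter fit of % inhibition with top/bottom fixed at 100/0 and Hill slope 1, or as averaged IC50 from % of untreated control.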
In general terms: An ELISA detects its analyte on a solid surface through an enzyme-linked reagent.

The test system of experiment [4] is Aβ42. Briefly: Screening for γ-secretase-modulating activity, Method 1: Aβ42 sandwich ELISA on SKNBE2 cell media. Conditions: SKNBE2 cells carrying APP 695 wild type. A digest of the protocol: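 SKNBE2 cells expressing wild-type APP695 were treated with compound for 18 h in Ultraculture/1% glutamine. Secreted Aβ42 was quantified by sandwich ELISA (C-terminal capture, biotinylated 3D6, TMB, 450 nm), with WST-1 used as a toxicity check. IC50 was derived from 4-parameter fits of % inhibition or % of untreated control.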

The mark [5] stands for this setting: Table 3a, 18 hours, XLfit, top/bottom fixed to 100 and 0, hill slope 1.
Setting [6] is: Table 3b, non-linear regression of % of control, averaged IC50 values.
Where [7] appears, read: Homo sapiens, Table 3a, 18 hours, XLfit, top/bottom fixed to 100 and 0, hill slope 1.
[8] abbreviates: Homo sapiens, Table 3b, non-linear regression of % of control, averaged IC50 values.

This passage reports IC50 results from patent US8772504B2, “Substituted benzoxazole, benzimidazole, oxazolopyridine and imidazopyridine derivatives as gamma secretase modulators” (Janssen Pharmaceuticals, Inc., priority 2009, dated 2014).

Some results are limits rather than exact numbers.

With `COc1nc(Nc2cccc3c2nc(-c2ccccc2OC(F)(F)F)n3C)ccc1-n1cnc(C)c1` [Compound 170], the values for the IC50 in experiment [1] and in experiment [2] were 36 nM and 9120 nM, respectively.

In the case of `COc1nc(Nc2cccc3c2nc(-c2ccc(F)cc2C)n3C)ccc1-n1cnc(C)c1` [Compound 185], the figures for the IC50 in experiment [1] and in experiment [2] were 25 nM and over 10000 nM, respectively.

`COc1cc(Nc2cccc3c2nc(-c2cccc(Cl)c2)n3C(C)C)ccc1-n1cnc(C)n1` [Compound 126]: the results for the IC50 in experiment [1] and in experiment [2] were 19 nM and over 10000 nM, respectively.

As to `COc1nc(Nc2ccnc3c2nc(-c2ccc(F)cc2)n3C)ccc1-n1cnc(C)c1` [Compound 201], the IC50 – broadly, the concentration at which inhibition is half-maximal – in experiment [1] is 4 nM; in experiment [2], over 10000 nM.

Turning to `Cc1cn(-c2ccc(Nc3cc(C)nc4c3nc(-c3ccc(F)cc3)n4C)cc2F)cn1` [Compound 112], the IC50 in experiment [1] (Homo sapiens) was 19 nM; in experiment [2] (Homo sapiens), over 10000 nM.

Regarding `COc1nc(Nc2cccc3c2nc(-c2cccc(C#N)c2)n3C)ccc1-n1cnc(C)c1` [Compound 198], the half-inhibitory concentration (IC50) in experiment [1] was 48 nM; in experiment [2], over 10000 nM.

Regarding `COc1cc(-c2nc3c(Nc4ccc(-n5cnc(C)n5)c(OC)c4)nc(C)cc3n2C)ccc1Cl` [Compound 135], the IC50 in experiment [1] was 10 nM; in experiment [2], over 10000 nM.

On to `CCOc1cccc(-c2nc3c(Nc4ccc(-n5cnc(C)c5)c(OC)n4)cccc3n2C)c1` [Compound 179], for which the 50% inhibitory concentration (IC50) in experiment [1] was found to be 11 nM; in experiment [2], 7940 nM.

Take `COc1ccc(-c2nc3c(Nc4ccc(-n5cnc(C)c5)c(OC)n4)cccc3n2C)cc1` [Compound 178]: the IC50 is 23 nM in experiment [1] and over 10000 nM in experiment [2].

For the compound `COc1nc(Nc2cccc3c2nc(-c2ccc(C(F)(F)F)cc2)n3C)ccc1-n1cnc(C)c1` [Compound 168], the IC50 in experiment [1] turned out to be 8 nM; in experiment [2], 7760 nM.

As to `COCc1cn(-c2ccc(Nc3cccc4c3nc(-c3ccc(F)cc3)n4C)cc2OC)cn1` [Compound 119], the concentration for half-maximal inhibition (IC50) in experiment [1] (Homo sapiens) is 65 nM; in experiment [2] (Homo sapiens), over 10000 nM.

Regarding `COc1nc(Nc2cccc3c2nc(-c2ccc(F)c(I)c2)n3C)ccc1-n1cnc(C)c1` [Compound 169], the IC50 in experiment [1] was 5 nM; in experiment [2], over 10000 nM.

Regarding `COc1cc(Nc2nc(C)cc3c2nc(-c2ccccc2Cl)n3C)ccc1-n1cnc(C)n1` [Compound 147], the results for the IC50 in experiment [1] and in experiment [2] were 44 nM and 7940 nM, respectively.

On to `COc1cc(Nc2ccc(-n3cnc(C)c3)c(F)c2)c2nc(-c3ccc(F)cc3)n(C)c2n1` [Compound 204], for which the figures for the IC50 in experiment [1] and in experiment [2] were 14 nM and over 10000 nM, respectively.

Consider `COc1cccc(-c2nc3c(Nc4ccc(-n5cnc(C)c5)c(OC)n4)cccc3n2C)c1` [Compound 177], for which the IC50 in experiment [1] was 20 nM; in experiment [2] it was 8910 nM.

For the compound `Cc1cn(-c2ccc(Nc3ccnc4c3nc(-c3ccc(F)cc3)n4C)cc2F)cn1` [Compound 205], the figures for the IC50 in experiment [1] and in experiment [2] were 63 nM and over 10000 nM, respectively.

In the case of `Cc1cc2c(nc(-c3ccc(F)cc3)n2C)c(Nc2ccc(-n3cc(C)nc3I)c(F)c2)n1` [Compound 154], the half-maximal inhibitory concentration (IC50) in experiment [1] (Homo sapiens) worked out at 19 nM; in experiment [2] (Homo sapiens), 560 nM.

As to `COc1cc(Nc2ccnc3c2nc(-c2ccc(F)cc2)n3C)ccc1-n1cnc(C)n1` [Compound 200], the concentration for half-maximal inhibition (IC50) was 40 nM in experiment [1] and over 10000 nM in experiment [2].

As to `COc1ccc(F)c(-c2nc3c(Nc4ccc(-n5cnc(C)c5)c(OC)n4)cccc3n2C)c1` [Compound 180], the 50% inhibitory concentration (IC50) was 18 nM in experiment [1] and over 10000 nM in experiment [2].

With `COc1ccccc1-c1nc2c(Nc3ccc(-n4cnc(C)c4)c(F)c3)nc(C)cc2n1C` [Compound 138], the 50% inhibitory concentration (IC50) in experiment [1] is 126 nM; in experiment [2] it was over 10000 nM.

As for `COc1cc(Nc2cccc3c2nc(C2(c4ccc(Cl)cc4)CC2)n3C)ccc1-n1cnc(C)n1` [Compound 123], the IC50 in experiment [1] was 145 nM; in experiment [2], over 10000 nM.

With `COc1nc(Nc2cccc3c2nc(-c2ccc(=O)n(C)c2)n3C)ccc1-n1cnc(C)c1` [Compound 146], the IC50 in experiment [1] was 347 nM; in experiment [2], over 10000 nM.

Turning to `COc1nc(Nc2cc(C)nc3c2nc(-c2ccc(F)cc2)n3C)ccc1-n1cnc(C)c1` [Compound 203], the concentration for half-maximal inhibition (IC50) was 4 nM in experiment [1] and over 10000 nM in experiment [2].

For `COc1nc(Nc2cccc3c2nc(-c2ccc(OC(F)(F)F)cc2)n3C)ccc1-n1cnc(C)c1` [Compound 191], the figures for the IC50 in experiment [1] and in experiment [2] were 18 nM and over 10000 nM, respectively.

Regarding `COc1nc(Nc2cccc3c2nc(-c2ccc(F)cc2F)n3C)ccc1-n1cnc(C)c1` [Compound 190], the IC50 in experiment [1] is 26 nM; in experiment [2], over 10000 nM.

As to `COc1nc(Nc2cccc3c2nc(-c2ccc(F)c(Br)c2)n3C)ccc1-n1cnc(C)c1` [Compound 133], the IC50 was 9 nM in experiment [1] (Homo sapiens) and over 10000 nM in experiment [2] (Homo sapiens).

For `COc1ccc(-c2nc3c(Nc4ccc(-n5cnc(C)c5)c(OC)n4)cccc3n2C)c(F)c1` [Compound 182], the results for the IC50 in experiment [1] and in experiment [2] were 39 nM and over 10000 nM, respectively.

`COc1cc(-c2nc3c(Nc4ccc(-n5cnc(C)c5)c(OC)n4)cccc3n2C)cc(C(F)(F)F)c1` [Compound 183]: the IC50 in experiment [1] turned out to be 10 nM; in experiment [2], 9120 nM.

For `CCOc1cccc(-c2nc3c(Nc4ccc(-n5cnc(C)c5)c(F)c4)nc(C)cc3n2C)c1` [Compound 153], the IC50 in experiment [1] was 12 nM; in experiment [2], 6460 nM.

For the compound `COc1nc(Nc2cccc3c2nc(-c2cccc(F)c2)n3C)ccc1-n1cnc(C)c1` [Compound 171], the IC50 in experiment [1] is 27 nM; in experiment [2] it was over 10000 nM.

Take `COc1nc(Nc2cccc3c2nc(-c2cc(C(F)(F)F)ccc2C)n3C)ccc1-n1cnc(C)c1` [Compound 195]: the half-inhibitory concentration (IC50) in experiment [1] was found to be 25 nM; in experiment [2], 6460 nM.

`COc1nc(Nc2cccc3c2nc(-c2ccccc2C(F)(F)F)n3C)ccc1-n1cnc(C)c1` [Compound 172]: the figures for the IC50 in experiment [1] and in experiment [2] were 23 nM and over 10000 nM, respectively.

Take `COc1nc(Nc2cccc3c2nc(-c2cccc(F)c2F)n3C)ccc1-n1cnc(C)c1` [Compound 176]: the IC50 in experiment [1] is 23 nM; in experiment [2], over 10000 nM.

Consider `COc1nc(Nc2cccc3c2nc(-c2cccc(N(C)C)c2)n3C)ccc1-n1cnc(C)c1` [Compound 173], for which the half-inhibitory concentration (IC50) in experiment [1] was 20 nM; in experiment [2], 7940 nM.

On to `COc1cc(Nc2cc(C3CC3)nc3c2nc(-c2ccc(F)cc2)n3C)ccc1-n1cnc(C)n1` [Compound 199], for which the IC50 in experiment [1] is 13 nM; in experiment [2] it was over 10000 nM.

On to `COc1ccc(-c2nc3c(Nc4ccc(-n5cnc(C)c5)c(OC)n4)cccc3n2C)c(C)c1` [Compound 194], for which the half-inhibitory concentration (IC50) in experiment [1] is 22 nM; in experiment [2], over 10000 nM.

For the compound `COc1nc(Nc2cccc3c2nc(-c2cc(F)cc(C(F)(F)F)c2)n3C)ccc1-n1cnc(C)c1` [Compound 132], the half-maximal inhibitory concentration (IC50) amounted to 5 nM in experiment [1] and 4570 nM in experiment [2].

As to `COc1cc(Nc2nccc3c2nc(-c2ccc(F)cc2F)n3C)ccc1-n1cnc(C)n1` [Compound 98], the IC50 in experiment [3] (setting [5]) was over 3000 nM; in experiment [3] (setting [6]), over 10000 nM; in experiment [4] (setting [5]), 357 nM; in experiment [4] (setting [6]), 331 nM.

With `COc1cc(Nc2cccc3oc(-c4ccccc4Cl)nc23)ccc1-n1cnc(C)c1` [Compound 16], the IC50 in experiment [3] (setting [7]) is over 10000 nM; in experiment [3] (setting [8]), over 10000 nM; in experiment [4] (setting [7]), 267 nM; in experiment [4] (setting [8]), 257 nM.

As for `COc1cc(Nc2cccc3c2nc(CC(C)C)n3CC(F)(F)F)ccc1-n1cnc(C)n1` [Compound 105], the half-inhibitory concentration (IC50) in experiment [3] (setting [5]) was found to be 2800 nM; in experiment [3] (setting [6]), 2500 nM; in experiment [4] (setting [5]), 129 nM; in experiment [4] (setting [6]) it was 129 nM.
